SMILES strings stand for the structures. Converted amounts (≈) assume the structure as drawn.

The conditions of the data set: buffer; pH 7.4; 200.0 µM.
As a reminder, the solubility (kinetic) is solubility judged after dilution from a stock solution rather than from solid. Compound `CCc1ccc(C(=O)Nc2nc3ccccc3[nH]2)cc1` yielded a solubility (kinetic) of 0.5 µg/mL (≈ 1.88 µM).
With `COc1ccc(S(=O)(=O)N2CCOCC2)cc1NC(=O)CSc1ncccn1` the figure was 13.8 µg/mL (≈ 32.5 µM); with `CCCC(=O)OCCNc1cc(SCCC(=O)OC)c2nonc2c1[N+](=O)[O-]`, 19.3 µg/mL (≈ 46.8 µM); with `CC(NC(=O)c1cc2cc([N+](=O)[O-])ccc2oc1=O)C1CCCO1` (centres undefined), 36.5 µg/mL (≈ 110 µM).
With `CCC(=O)N1CC(=O)Nc2ccc(F)cc2C1c1ccc(F)cc1` (centres undefined) the figure was greater than 49.6 µg/mL.
The same measure for `Cc1cc(=O)oc(C)c1C(=O)NCCN(C)Cc1ccccc1`: greater than 47.2 µg/mL.
In the case of `Cc1cc(NC(=O)c2cccnc2)ccc1Br`, the solubility (kinetic) came out at 40.2 µg/mL (≈ 138 µM).
The same measure for `O=C(N/C(=C/c1ccccc1)C(=O)N1CCCCC1)c1ccco1`: greater than 48.7 µg/mL.
In turn, `O=C(/C=C/c1cccs1)c1ccc([N+](=O)[O-])cc1` had a solubility (kinetic) of 1.9 µg/mL (≈ 7.33 µM).
Turning to `CCS(=O)(=O)N1CCN=C1SC(C)c1ccccc1` (centres undefined), the kinetic solubility worked out at 41.4 µg/mL (≈ 139 µM).
With `CCN(CC)C(=O)Cn1c(=O)oc2ccccc21` the figure was greater than 37.2 µg/mL; with `Cc1noc(C)c1C(=O)OCC(=O)Nc1ncc(C(F)(F)F)cc1Cl`, 16.8 µg/mL (≈ 44.5 µM).
With `CCc1ccc(C(CC(=O)O)N2Cc3ccccc3C2=O)cc1` (centres undefined) the figure was greater than 46.4 µg/mL.
The same measure for `Cc1cc(C)cc(C(=O)NCCCN2CCOCC2)c1`: greater than 41.5 µg/mL; for `Cc1cccc(-n2c(O)c(C=NCCN3CCCCC3)c(=O)[nH]c2=O)c1`: greater than 53.5 µg/mL; for `O=C(CSc1ncnc2sccc12)N1CCCCC1`: greater than 44 µg/mL.
Consider `N#CC(c1ccccc1)N1CCOCC1` (centres undefined), for which the solubility (kinetic) stood at 20.7 µg/mL (≈ 102 µM).
With `COc1ccc(N2C(=S)NC3CS(=O)(=O)CC32)cc1` (centres undefined) the figure was greater than 44.8 µg/mL.
The same measure for `COC(=O)Cc1ccc(Oc2ncc(C(F)(F)F)cc2Cl)cc1`: 8.5 µg/mL (≈ 24.6 µM); for `COc1ccc(C(=O)C2CCCN(C(=O)C3=CCCC3)C2)c(C)c1` (centres undefined): greater than 49.1 µg/mL.
Take `O=C(NC1CCCCCC1)C(=S)N1CCOCC1`: the kinetic solubility was 23.1 µg/mL (≈ 85.4 µM).
With `O=C(COC(=O)C1CCC1)NCc1ccc(F)cc1` the figure was greater than 39.8 µg/mL.
The same measure for `Cc1c(-c2nc(-c3cccnc3)no2)cccc1[N+](=O)[O-]`: 2 µg/mL (≈ 7.09 µM).
With `C[C@@H]1NC(=O)N[C@@H]1CCCCCC(=O)O` the figure was greater than 32.1 µg/mL; with `COCC(C)n1c(C)cc(C(=O)COC(=O)c2cnc(Cl)c(Cl)c2)c1C` (centres undefined), 34 µg/mL (≈ 85.2 µM).
Compound `Clc1ccc(-c2csc(-c3ccno3)n2)cc1` gave a kinetic solubility of less than 0.3 µg/mL.
The same measure for `Nc1ccc(S(=O)(=O)[O-])cn1.[Na+]`: greater than 29.4 µg/mL.
The same measure for `CN(CC(=O)c1c(N)n(C)c(=O)n(C)c1=O)c1ccccc1`: greater than 45.3 µg/mL; for `CC(=O)Nc1ccccc1S(=O)(=O)CC1CC1(Cl)Cl` (centres undefined): greater than 48.3 µg/mL.
The same measure for `CSc1ccccc1NC(=O)COC(=O)Cc1ccsc1`: greater than 48.2 µg/mL; for `CCOC(=O)c1sc(NC(=O)CN2CCN(c3ccc(OC)cc3)CC2)nc1C`: 15.3 µg/mL (≈ 36.6 µM).
As to `O=C(O)/C=C/C(=O)Nc1ccc(-n2nccc2C(F)(F)F)cc1`, the solubility (kinetic) is greater than 48.8 µg/mL.
The same measure for `O=C(NN1CCOCC1)c1cccc(F)c1`: greater than 33.6 µg/mL.
The same measure for `Cc1ccc(CNC(=O)CCCc2c[nH]c3ccccc23)cc1`: 17.6 µg/mL (≈ 57.4 µM); for `COc1ccc(OCCn2c(N)nc3ccccc32)cc1`: greater than 42.5 µg/mL.
On to `O=C(N/C(=C/c1ccc(F)cc1)C(=O)N1CCCC1)c1ccccc1`, for which the solubility (kinetic) was greater than 50.8 µg/mL.
With `CCCN(CCC)CC(O)COc1ccc2c(c1)OCO2.Cl` (centres undefined) the figure was 45.5 µg/mL; with `O=C(Nc1ccc(N2CCOCC2)cc1)c1c(F)cccc1Cl`, 21.3 µg/mL (≈ 63.6 µM).
With `COCCC(=O)Nc1ccc2c(c1)CN(C(=O)CCOC)CC2` the figure was greater than 48.1 µg/mL; with `Cc1cccc(CSc2nc3c(c(-c4cccs4)c2C#N)CN(C)CC3)c1`, 5.8 µg/mL (≈ 14.8 µM).
The same measure for `CCCCN(C(=O)CSc1nc(CCC)cc(=O)[nH]1)c1c(N)n(Cc2ccccc2)c(=O)[nH]c1=O`: greater than 74.8 µg/mL.
In the case of `O=C1CCC(C(=O)OCc2nnc(-c3ccccc3)o2)=NN1`, the kinetic solubility is greater than 45 µg/mL.
The same measure for `N#C/C(=C\c1ccc2c(c1)OCO2)C(=O)NCc1ccco1`: 0.6 µg/mL (≈ 2.03 µM); for `CCN(CC)c1ccc(C(=O)N/N=C(\C)c2cccnc2)cc1`: greater than 46.6 µg/mL.
The same measure for `Cc1ccc(Nc2ncnc3sccc23)c(C)c1`: greater than 38.3 µg/mL; for `Cn1c(=O)c2c(nc3n2CCS3)n(C)c1=O`: greater than 35.7 µg/mL.
With `Cc1noc(C)c1COc1cccc(C(=O)Nc2ccc(Br)cc2F)c1` the figure was 9.6 µg/mL (≈ 22.9 µM).
As to `CCOC(=S)N/C(=N\S(C)(=O)=O)c1ccccc1`, the solubility (kinetic) was greater than 43 µg/mL.
The same measure for `O=S(=O)(c1ccc(Cl)cc1)N1CCCc2ccccc21`: 3.7 µg/mL (≈ 12 µM).
The same measure for `Cc1ccc(C)c(NC(=O)C2CCN(C(=O)c3cccs3)CC2)c1`: greater than 51.4 µg/mL; for `CSc1ncccc1C(=O)NCC1CCCCC1`: 38.4 µg/mL (≈ 145 µM); for `Cc1cc(NC(=O)COC(=O)c2ccccc2NCCO)no1`: greater than 47.9 µg/mL.
With `N#Cc1ccccc1OCC(=O)OCC(=O)c1ccc[nH]1` the figure was 24.9 µg/mL (≈ 87.6 µM).
`C=CCn1c(C)nnc1SCC(=O)NC1CC1` yielded a solubility (kinetic) greater than 37.9 µg/mL.
With `Cc1ccc(Cl)cc1NC(=O)COC(=O)CCN1C(=O)C2CC=CCC2C1=O` (centres undefined) the figure was greater than 60.7 µg/mL; with `Cc1cccc2nc3ccccc3cc12`, 6.8 µg/mL (≈ 35.2 µM); with `Oc1ccc2oc3c(c2c1C=NCc1ccncc1)CCCC3`, 16.9 µg/mL (≈ 55.2 µM).
With `O=C(O)CC(c1ccccc1)N1C(=O)c2ccccc2C1=O` (centres undefined) the figure was 43.9 µg/mL (≈ 149 µM).
The same measure for `CC(=O)N1Cc2[nH]c3ccccc3c2CC1C(=O)O` (centres undefined): greater than 38.7 µg/mL.
Compound `CCOc1ccc(S(=O)(=O)n2cnc(C)c2)cc1` came in with a solubility (kinetic) of 38.5 µg/mL (≈ 145 µM).
The same measure for `NC(=[NH2+])SCc1[nH+]cccc1O.[Cl-]`: 35.3 µg/mL.
The same measure for `CC(C)Cc1ccc(S(=O)(=O)Nc2ccccn2)cc1`: 31.7 µg/mL (≈ 109 µM); for `COC(=O)c1ccc2c(=O)n(-c3ccc(OC)cc3)c(=S)[nH]c2c1`: 1.5 µg/mL (≈ 4.38 µM).
The same measure for `Clc1ccc(C2Nc3cccc4cccc(c34)N2)cc1`: 7.7 µg/mL (≈ 27.4 µM).
In the case of `CC(NC(=O)c1ccc(N)cc1)c1ccccc1` (centres undefined), the kinetic solubility was greater than 36 µg/mL.
Consider `COc1ccc(C(=O)Nc2cccc(S(=O)(=O)NCc3ccco3)c2)cc1`, for which the kinetic solubility came out at 8.7 µg/mL (≈ 22.5 µM).
The same measure for `S=C(NCCc1ccccn1)NC1CC2CCC1C2` (centres undefined): greater than 41.3 µg/mL; for `O=C(O)Cc1c(-c2ccccc2)c2cc(Cl)ccc2[nH]c1=O`: greater than 47.1 µg/mL.
For the compound `CC1Oc2ccccc2N(CC(=O)N2CCCC2)C1=O` (centres undefined), the kinetic solubility was greater than 41.1 µg/mL.
With `Cc1ccc(S(=O)(=O)NC2=NCN(CC(=O)[O-])CN2)cc1.[Na+]` the figure was greater than 50.1 µg/mL; with `CCN(CC)CC(=O)Nc1sc(C)c(C)c1C(=O)c1ccc(C)cc1`, 4.6 µg/mL (≈ 12.8 µM); with `O=C(Nc1cccc2ccccc12)C1CCCC1`, 12.2 µg/mL (≈ 51 µM).
With `Cc1csc2nc(NC(=O)c3ccccc3)sc(=O)c12` the figure was 0.9 µg/mL (≈ 2.98 µM); with `O=C(CS(=O)(=O)c1ccccc1)N1CCCCC1`, greater than 40.1 µg/mL.
`CC(=O)Nc1cccc(-c2csc(N)n2)c1` came in with a kinetic solubility greater than 35 µg/mL.
The same measure for `O=C(NCc1ccco1)c1nn2cccnc2c1Cl`: greater than 41.5 µg/mL; for `O=C(NCc1ccccc1)C(=O)Nc1cccc(C(=O)O)c1`: greater than 44.7 µg/mL.
The same measure for `Cc1nn(C)c(Oc2ccccc2)c1CCNC(=O)C(C)(C)C`: greater than 47.3 µg/mL; for `O=C(CC1CCCC1)Nc1ccc(Cl)c(S(=O)(=O)N2CCOCC2)c1`: 54.7 µg/mL (≈ 141 µM); for `O=C(NCCCCc1ccccc1)c1ccc(Br)cc1`: less than 0.7 µg/mL.
With `CCNCC(O)c1cccc(O)c1` (centres undefined) the figure was 18.9 µg/mL (≈ 104 µM).
For the compound `CC(C)Cc1nc2ccccc2[nH]1`, the kinetic solubility is greater than 26.1 µg/mL.
The same measure for `CCn1c(/N=C/c2ccc(OC)cc2O)nc2ccccc21`: 15.6 µg/mL (≈ 52.8 µM); for `CC1CCCC(NC(=O)CN2C(=O)COc3ccccc32)C1C` (centres undefined): 6.4 µg/mL (≈ 20.2 µM).
The same measure for `CCCCc1ccc(NC(=O)C(C)CC)cc1` (centres undefined): 6.7 µg/mL (≈ 28.7 µM); for `Cc1cccc(NC(=O)c2cccc(NC(=O)c3ccco3)c2)c1C`: 0.5 µg/mL (≈ 1.5 µM).
The compound `CN1CCN(c2ccc(NC(=O)CN3CCOCC3)cc2F)CC1` showed a solubility (kinetic) greater than 50.5 µg/mL.
With `CCOC(=O)C1CCN(C(=O)CN2C(=O)NC(C)(c3ccc4cc(OC)ccc4c3)C2=O)CC1` (centres undefined) the figure was 15.6 µg/mL (≈ 33.4 µM).
The same measure for `O=C(c1cc(-c2cccc(O)c2)on1)N1CCCCCC1`: 40.8 µg/mL (≈ 142 µM); for `Cc1cc(C)n2nc(C(=O)N/N=C/c3cn(C)nc3C)nc2n1`: greater than 46.8 µg/mL; for `CCOP(=O)(OCC)C(Nc1ccc(F)cc1)c1ccccc1` (centres undefined): greater than 50.6 µg/mL.
The same measure for `CN1CCN(S(=O)(=O)c2cccc(C(=O)O)c2)CC1`: 42 µg/mL (≈ 148 µM); for `CCCCc1nc2cc(C(=O)N3CCCC3)ccc2o1`: greater than 40.9 µg/mL; for `Cc1ccc(NC(=O)C2CCN(C(=O)c3ccco3)CC2)cc1C`: 45.1 µg/mL (≈ 138 µM).
In the case of `Cc1c(C)c(C)c(CN2CCSCC2)c(C)c1C`, the kinetic solubility was less than 0.6 µg/mL.
Consider `CN1c2ccccc2C(=O)/C(=C\Nc2ccc(F)cc2)S1(=O)=O`, for which the kinetic solubility is less than 0.4 µg/mL.
As to `COc1ccc(-c2cnc3n2CCCCC3)cc1`, the kinetic solubility was greater than 36.3 µg/mL.
The same measure for `COc1cc(N)c(Cl)cc1C(=O)OCC(=O)Nc1ccc(N2CCOCC2)cc1`: 4.9 µg/mL (≈ 11.7 µM); for `COc1ccc(Cl)cc1NC(=O)c1cc(C)no1`: 5.7 µg/mL (≈ 21.4 µM); for `O=C(COc1ccc2ccc(=O)oc2c1)NC1CCS(=O)(=O)C1` (centres undefined): greater than 50.6 µg/mL.
With `Cc1ccc(OC(=O)CCC(=O)Nc2ccc(C(N)=O)cc2)cc1` the figure was greater than 49 µg/mL; with `CCOC(=O)c1c(C)[nH]c(C)c1C(=O)COC(=O)CCc1ccccc1`, greater than 53.6 µg/mL.
`Cc1ccc(C2CCN(C(=O)Nc3ccc(F)cc3)C2)cc1` (centres undefined) came in with a kinetic solubility of 1.7 µg/mL (≈ 5.7 µM).
With `O=[N+]([O-])c1ccc(C2CCCC/C2=N/O)c([N+](=O)[O-])c1` (centres undefined) the figure was 8.8 µg/mL (≈ 31.5 µM).

These data come from PubChem BioAssay AID1996.
